According to ChEMBL document CHEMBL1201862, “PubChem BioAssay data set” (2004):
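Exposure lasted 48 hours, with cells grown in 96-well plates and compounds tested at five concentrations. GI50 marks 50% less growth.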 The source made the active and inactive calls. No stated cut-off is given here; in the data, active = GI50 up to about 1.1 µM and inactive = higher.

Columns and labels:
Assay in all cases: NCI-60 cell line screen, 48 h
[1] = tested on: 786-0
[2] = tested on: A549
[3] = tested on: ACHN
[4] = tested on: CAKI-1
[5] = tested on: COLO 205
[6] = tested on: DLD-1
[7] = tested on: DMS-114
[8] = tested on: DMS-273
[9] = tested on: EKVX
[10] = tested on: HCC 2998
[11] = tested on: HCT-15
[12] = tested on: HL-60
[13] = tested on: HOP-18
[14] = tested on: HOP-62
[15] = tested on: HOP-92
[16] = tested on: HT-29
[17] = tested on: IGROV-1
[18] = tested on: K562
[19] = tested on: KM-20L2
[20] = tested on: LOX IMVI
[21] = tested on: M14
[22] = tested on: M19-MEL
[23] = tested on: MOLT-4
[24] = tested on: Malme-3M
[25] = tested on: NCI-H23
[26] = tested on: NCI-H460
[27] = tested on: OVCAR-3
[28] = tested on: OVCAR-4
[29] = tested on: OVCAR-8
[30] = tested on: RPMI-8226
[31] = tested on: RXF 393
[32] = tested on: SF-268
[33] = tested on: SF-295
[34] = tested on: SK-MEL-28
[35] = tested on: SK-OV-3
[36] = tested on: SN12C
[37] = tested on: SNB-75
[38] = tested on: SNB-78
[39] = tested on: SW-620
[40] = tested on: TK-10
[41] = tested on: U-251
[42] = tested on: UACC-62
[43] = tested on: UO-31
[44] = tested on: XF498
[45] = tested on: A498
[46] = tested on: CCRF-CEM
[47] = tested on: HCT-116
[48] = tested on: KM12
[49] = tested on: LXFL 529
[50] = tested on: NCI-H226
[51] = tested on: NCI-H522
[52] = tested on: OVCAR-5
[53] = tested on: SF-539
[54] = tested on: SK-MEL-2
[55] = tested on: SNB-19
[56] = tested on: SR
[57] = tested on: UACC-257
[58] = tested on: SK-MEL-5

CC(=O)Oc1cc(OC(C)=O)c2cc3c(cc2c1OC(C)=O)C(=O)C1(CCCC1)C3=O
GI50 [1]: 17.2 µM (inactive) | GI50 [2]: 19.1 µM (inactive) | GI50 [3]: 17.7 µM (inactive) | GI50 [4]: 11.4 µM (inactive) | GI50 [5]: 17.4 µM (inactive) | GI50 [6]: 20 µM (inactive) | GI50 [7]: 16.5 µM (inactive) | GI50 [8]: 18.2 µM (inactive) | GI50 [9]: 20 µM (inactive) | GI50 [10]: 21.7 µM (inactive) | GI50 [11]: 17.8 µM | GI50 [12]: 20.8 µM (inactive) | GI50 [13]: 22.8 µM (inactive) | GI50 [14]: 21.4 µM (inactive) | GI50 [15]: 15.1 µM (inactive) | GI50 [16]: 12.2 µM (inactive) | GI50 [17]: 17.2 µM (inactive) | GI50 [18]: 14.7 µM (inactive) | GI50 [19]: 22.1 µM (inactive) | GI50 [20]: 14.3 µM (inactive) | GI50 [21]: 17.7 µM (inactive) | GI50 [22]: 17.2 µM (inactive) | GI50 [23]: 3.18 µM (inactive) | GI50 [24]: 17.9 µM (inactive) | GI50 [25]: 17.7 µM (inactive) | GI50 [26]: 17.5 µM (inactive) | GI50 [27]: 19.3 µM (inactive) | GI50 [28]: 18.6 µM (inactive) | GI50 [29]: 16.4 µM (inactive) | GI50 [30]: 2.29 µM (inactive) | GI50 [31]: 17.2 µM (inactive) | GI50 [32]: 22.5 µM (inactive) | GI50 [33]: 16.3 µM (inactive) | GI50 [34]: 15.6 µM (inactive) | GI50 [35]: 17.6 µM (inactive) | GI50 [36]: 17.7 µM (inactive) | GI50 [37]: 14.2 µM (inactive) | GI50 [38]: 22.9 µM (inactive) | GI50 [39]: 16.3 µM (inactive) | GI50 [40]: 17.2 µM (inactive) | GI50 [41]: 18.1 µM (inactive) | GI50 [42]: 15.8 µM (inactive) | GI50 [43]: 16.3 µM (inactive) | GI50 [44]: 16.4 µM (inactive)

C[C@@H](CC(O)C1OC1(C)C)[C@@H]1CC[C@]2(C)C3=CCC4C(C)(C)C(O)CC[C@]4(C)C3CCC12C (stereo partly specified)
GI50 [1]: 16 µM (inactive) | GI50 [45]: 26.5 µM (inactive) | GI50 [2]: 12.7 µM (inactive) | GI50 [3]: 14.8 µM (inactive) | GI50 [46]: 27.5 µM (inactive) | GI50 [5]: 21.3 µM (inactive) | GI50 [6]: 16.6 µM (inactive) | GI50 [8]: 13.3 µM (inactive) | GI50 [9]: 39.6 µM (inactive) | GI50 [10]: 48.6 µM (inactive) | GI50 [47]: 9.89 µM (inactive) | GI50 [11]: 33.1 µM | GI50 [12]: 4.14 µM (inactive) | GI50 [13]: 20 µM (inactive) | GI50 [14]: 42.8 µM (inactive) | GI50 [15]: 17.9 µM (inactive) | GI50 [16]: 11.4 µM (inactive) | GI50 [17]: 31.3 µM (inactive) | GI50 [18]: 6.84 µM (inactive) | GI50 [19]: 15.4 µM (inactive) | GI50 [48]: 22.9 µM (inactive) | GI50 [20]: 24.8 µM (inactive) | GI50 [49]: 12.3 µM (inactive) | GI50 [21]: 13.9 µM (inactive) | GI50 [22]: 18.1 µM (inactive) | GI50 [23]: 16 µM (inactive) | GI50 [24]: 13 µM (inactive) | GI50 [50]: 18.5 µM (inactive) | GI50 [25]: 19.1 µM (inactive) | GI50 [26]: 17.3 µM (inactive) | GI50 [51]: 11.8 µM (inactive) | GI50 [27]: 34.7 µM (inactive) | GI50 [28]: 20.8 µM (inactive) | GI50 [52]: 38 µM (inactive) | GI50 [29]: 26.5 µM (inactive) | GI50 [30]: 10.3 µM (inactive) | GI50 [31]: 16.7 µM (inactive) | GI50 [32]: 26.3 µM (inactive) | GI50 [33]: 13.7 µM (inactive) | GI50 [53]: 17.9 µM (inactive) | GI50 [34]: 18.2 µM (inactive) | GI50 [54]: 18.6 µM (inactive) | GI50 [35]: 19.8 µM (inactive) | GI50 [36]: 42.2 µM (inactive) | GI50 [55]: 37.6 µM (inactive) | GI50 [56]: 16.3 µM (inactive) | GI50 [39]: 38.9 µM (inactive) | GI50 [40]: 20.3 µM (inactive) | GI50 [41]: 30.5 µM (inactive) | GI50 [57]: 16.3 µM (inactive) | GI50 [42]: 14.8 µM (inactive) | GI50 [43]: 18.6 µM (inactive) | GI50 [44]: 20.8 µM (inactive)

O=C(N/N=C(\C1=Nc2ccc(Cl)cc2NC1O)C(O)/C=C/c1ccccc1)c1ccncc1 (stereo unspecified)
GI50 [1]: > 100 µM (inactive) | GI50 [2]: > 100 µM (inactive) | GI50 [3]: > 100 µM (inactive) | GI50 [4]: > 100 µM (inactive) | GI50 [46]: > 100 µM (inactive) | GI50 [5]: > 100 µM (inactive) | GI50 [6]: > 100 µM (inactive) | GI50 [7]: > 100 µM (inactive) | GI50 [8]: > 100 µM (inactive) | GI50 [10]: > 100 µM (inactive) | GI50 [47]: > 100 µM (inactive) | GI50 [11]: > 100 µM | GI50 [12]: > 100 µM (inactive) | GI50 [14]: > 100 µM (inactive) | GI50 [15]: 54.5 µM (inactive) | GI50 [16]: > 100 µM (inactive) | GI50 [17]: > 100 µM (inactive) | GI50 [18]: > 100 µM (inactive) | GI50 [19]: > 100 µM (inactive) | GI50 [48]: > 100 µM (inactive) | GI50 [20]: > 100 µM (inactive) | GI50 [49]: > 100 µM (inactive) | GI50 [21]: > 100 µM (inactive) | GI50 [22]: > 100 µM (inactive) | GI50 [23]: > 100 µM (inactive) | GI50 [24]: > 100 µM (inactive) | GI50 [50]: > 100 µM (inactive) | GI50 [25]: > 100 µM (inactive) | GI50 [26]: > 100 µM (inactive) | GI50 [51]: > 100 µM (inactive) | GI50 [27]: > 100 µM (inactive) | GI50 [28]: > 100 µM (inactive) | GI50 [52]: > 100 µM (inactive) | GI50 [29]: > 100 µM (inactive) | GI50 [30]: > 100 µM (inactive) | GI50 [31]: > 100 µM (inactive) | GI50 [32]: > 100 µM (inactive) | GI50 [33]: > 100 µM (inactive) | GI50 [53]: > 100 µM (inactive) | GI50 [34]: > 100 µM (inactive) | GI50 [58]: > 100 µM (inactive) | GI50 [35]: > 100 µM (inactive) | GI50 [36]: > 100 µM (inactive) | GI50 [55]: > 100 µM (inactive) | GI50 [37]: > 100 µM (inactive) | GI50 [38]: > 100 µM (inactive) | GI50 [56]: > 100 µM (inactive) | GI50 [39]: > 100 µM (inactive) | GI50 [40]: > 100 µM (inactive) | GI50 [41]: > 100 µM (inactive) | GI50 [57]: > 100 µM (inactive) | GI50 [42]: > 100 µM (inactive) | GI50 [43]: 30.8 µM (inactive) | GI50 [44]: > 100 µM (inactive)
